Experimental findings from PubChem BioAssay AID179 (DTP/NCI, 2004) are described below.

This assay has as its system CEM cells HIV-1 protection, formazan growth assay. Kind of assay: NCI AIDS Antiviral Assay. Conditions: for IC50: measured here: growth of uninfected CEM cells. An outline of the steps: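 Human CEM cells, uninfected and HIV-1-infected, received five drug concentrations, and growth was read by soluble formazan assay. Compounds giving at least 50% protection were retested; reproducible 100% protection defined confirmed active.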

Where “and” joins values, the source holds several entries; their conditions need not be identical. Equal values may be shown once. Calls of active or inactive are those of the source.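 How the source made its calls: active means compounds giving half or more protection of infected cells from virus-caused growth loss, again on retest; inactive means the rest.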

With `COc1ccc2nc3c([N+](=O)[O-])ccc(NCCCN(C)C)c3c(N)c2c1`, the EC50 was above 200 µM and the IC50 was found to be 0.195 µM.
With `CCOC(=O)N1c2c(ccn2C)-c2ccn(C)c2N1C(=O)OCC`, the EC50 was above 15.1 µM and the IC50 is 5.89 µM.
For `CCOC(=O)CCn1ncc(Cl)c(Cl)c1=O` the same measures were above 933 µM and 4.07 µM.
Turning to `O=C1c2cccc(NCCNCCO)c2C(=O)c2cccc(NCCNCCO)c21`, the result was inactive.
As for `C/C(=N\OC(=O)Nc1cccc(Cl)c1)c1ccccc1`, the EC50 is above 200 µM and the concentration for half-maximal inhibition (IC50) was determined as 32.4 µM.
`COc1cccc(C2c3cc4c(cc3OC(N3CCCC3)C2C)OCO4)c1OC` (stereo not drawn): the EC50 was above 200 µM and the concentration for half-maximal inhibition (IC50) is 1.41 µM.
`O=c1c2ccccc2nc(-c2ccccc2)n1/N=C/c1ccccc1[N+](=O)[O-]`: the EC50 is above 50.1 µM and the IC50 was above 50.1 µM.
On to `CC(=O)C(O)N1C(=O)C=CC1=O` (stereo not drawn), for which the EC50 is above 50.1 µM and the IC50 worked out at 1.86 µM.
Take `C1=C2/CC[C@H](Sc3ccccc3)[C@H]2C2(CCCCC/1)OCCO2`: the EC50 was above 15.8 µM and the IC50 is above 15.8 µM.
As for `CC1(C)CC(O)C2=C(O1)C(=O)c1ncccc1C2=O` (stereo not drawn), the outcome was inactive.
As to `O=C(/C=C\c1ccc(-c2ccccc2)cc1)c1cccs1`, the EC50 is above 200 µM and the IC50 amounted to 11.2 µM.
As for `O=C1c2c(O)cccc2[C@H](O)[C@]23O[C@]12CC[C@]1(O)CCC[C@@H](O)[C@@H]13`, the EC50 is above 20 µM and the IC50 stood at 0.977 µM.
In the same order, the values of `O=C(c1ccccc1)c1ccsc1C(=O)c1ccccc1` are above 200 µM and 36.3 µM.
On to `CC1CC(=O)C(C(O)CC2CC(=O)N(c3ccccc3)C(=O)C2)C(C)C1` (stereo not drawn), for which the EC50 is above 200 µM and the IC50 was above 200 µM.
With `COc1ccc2c(c1)C(N)=C(c1ccccc1OC)C2=O`, the EC50 is above 200 µM and the IC50 is 120 µM.
For the molecule `COc1ccc(C2CC(=O)c3ccccc3O2)cc1OC` (stereo not drawn), the EC50 was above 200 µM and the IC50 came out at 40.7 µM.
Take `COC(=O)[C@H](NC(=O)OC(C)(C)C)[C@H]1COC(C)(C)O1`: the EC50 is above 200 µM and the IC50 is above 200 µM.
Turning to `COc1cc(/C=C(\C#N)C(=O)c2ccccc2)ccc1OCc1ccccc1`, the EC50 is above 19.5 µM and the IC50 is above 19.5 µM.
Take `COC(=O)/N=[N+](\[O-])C(c1ccc(Cl)cc1)c1ccc(Cl)cc1`: the EC50 was above 200 µM and the half-inhibitory concentration (IC50) turned out to be 64.6 µM.
Take `CSC1=N/C(=C\c2ccc(C)cc2)C(=O)N1`: the EC50 was above 200 µM and the IC50 was found to be 178 µM.
On to `Cc1c(C#N)c(N)n(C2OCC(O)C(O)C2O)c(=S)c1C#N` (stereo not drawn), for which the outcome was inactive.
As for `O=C1C(=Nc2ccccc2)Oc2cc(O)ccc21`, the EC50 was above 200 µM and the IC50 came to 17.8 µM.
On to `CC(=O)c1ccc2c(c1)N(CCCN(C)C)c1ccccc1S2`, for which the EC50 was above 200 µM and the IC50 came out at 34.7 µM.
In the case of `COC(=O)C(=O)C(C(=O)C(=O)Nc1ccc(C)c(C)c1)c1nc2ccc([N+](=O)[O-])cc2[nH]c1=O` (stereo not drawn), the EC50 was above 537 µM and the IC50 came to 234 µM.
On to `CC(C)OP(=O)(OC(C)C)C(=NCCO)NNc1ccc([N+](=O)[O-])cc1`, for which the EC50 is above 339 µM and the IC50 was found to be 29.5 µM.
As to `O=C(OC[C@H]1O[C@@H](OC(=O)c2cc(O)c(O)c(O)c2)[C@H](OC(=O)c2cc(O)c(O)c(O)c2)[C@@H](OC(=O)c2cc(O)c(O)c(O)c2)[C@@H]1OC(=O)c1cc(O)c(O)c(O)c1)c1cc(O)c(O)c(O)c1`, the EC50 was above 132 µM and the IC50 was determined as 21.4 µM.
As to `C(/COc1cccnc1)=N\NC1=NCCN1`, the EC50 is above 832 µM and the IC50 was determined as 186 µM.
For `Oc1c(NCn2nc(CCCCCCCCc3nn(CNc4ccc5ccccc5c4O)c(=S)o3)oc2=S)ccc2ccccc12` the same measures were above 200 µM and 35.5 µM.
As to `O=C(Nc1ccc(Cl)cc1C(F)(F)F)C(=O)Nn1c(=S)[nH]c2ccccc2c1=O`, the EC50 is above 151 µM and the IC50 is above 151 µM.
With `CC(/C=N/N=C(N)N)=N\N=C(N)N`, the EC50 was above 977 µM; the IC50 was 2.75 µM and 0.513 µM.
For `BrC1(Br)C2/C=C\CCCCC21` (stereo not drawn), the result was inactive.
For `CC1CN=C(NCc2ccccc2)S1` (stereo not drawn), the EC50 is above 200 µM and the IC50 is above 200 µM.
Regarding `Cc1cc(=O)[nH]c(NN2C(Cl)C(=O)C2c2c(O)ccc3ccccc23)n1` (stereo not drawn), the EC50 is above 182 µM and the IC50 is 24 µM.
On to `O=C1c2ccccc2C(=O)c2c1ccc1c2[nH]c2ccccc21`, for which the outcome was inactive.
For `OC[P+](CO)(CO)C12CC3CC(CC(C3)C1)C2`, the EC50 is above 200 µM and the IC50 came out at 41.7 µM.
For the molecule `CC1=CC(C(=O)O)P(C)(=O)C1` (stereo not drawn), the outcome was inactive.
Regarding `CCOC(=O)c1nnsc1NN`, the EC50 was above 200 µM and the IC50 turned out to be 166 µM.
Take `O=C1c2ccccc2-c2c3c(cc4ccnc1c24)OCO3`: the result was inactive.
Regarding `Cc1ccc2c(c1)C(C1Cc3cccc(C)c3C1=O)OC2=O` (stereo not drawn), the EC50 is above 200 µM and the IC50 was above 200 µM.
Consider `CCC1=CC2CN3CCc4c([nH]c5ccccc45)C(C(=O)OC)(C2)C13` (stereo not drawn), for which the outcome was inactive.
On to `CC[N+](CC)(CCNCC(N)=O)CC(N)=O`, for which the EC50 was above 200 µM and the IC50 was above 200 µM.
In the case of `Cc1cc(N(CCC#N)CCC#N)ccc1/C=C1/CN(N2C(=O)/C(=C/c3ccc(N(CCC#N)CCC#N)cc3C)N=C2c2ccccc2)C(c2ccccc2)=N1`, the EC50 was above 5.01 µM and the concentration for half-maximal inhibition (IC50) was above 5.01 µM.
Consider `N#CC1(C#N)NC(c2cccnc2)C(C#N)(C#N)NC1c1cccnc1` (stereo not drawn), for which the EC50 is above 200 µM and the IC50 is above 200 µM.
Turning to `CCC1(CCCC=C(c2cc(Cl)c(OC)c(C(=O)OC)c2)c2cc(Cl)c(OC)c(C(=O)OC)c2)OCCO1`, the EC50 was above 200 µM and the IC50 amounted to 148 µM.
For `CCOC(=O)c1ccc(C(=O)/C(C(=O)OC(C)(C)C)=C2\CCCN2C)n1C`, the EC50 was 89.1 µM and the concentration for half-maximal inhibition (IC50) is 141 µM.
For `NC1(CSS(=O)(=O)O)CCN1` (stereo not drawn), the EC50 is above 200 µM and the IC50 was above 200 µM.
For `O=C(Nc1ccc(Cl)cc1)C1C(=O)C(=O)N(c2ccc(Cl)cc2)C1=O` (stereo not drawn), the outcome was inactive.
As for `Clc1cc2nc(C3CCCO3)[nH]c2cc1Cl` (stereo not drawn), the EC50 was above 200 µM and the IC50 stood at 66.1 µM.
As to `S=c1sc(-c2ccccc2)c[se]1`, the EC50 was above 50.1 µM and the IC50 was 29.5 µM.
With `O=S1(=O)CCC(Br)c2ccccc2C1` (stereo not drawn), the EC50 was above 200 µM and the IC50 was above 200 µM.
As for `CSC1(CC(=O)N(C)C)C(=O)Nc2ccccc21` (stereo not drawn), the EC50 is above 200 µM and the IC50 is above 200 µM.
On to `CCN(CC)C(=O)N1CCN(C=S)CC1`, for which the EC50 is above 794 µM and the IC50 is above 794 µM.
As to `Nc1ccc(N=Nc2ccc(/C=C/c3ccc(N=Nc4ccc(N)c5cc(S(=O)(=O)O)ccc45)cc3S(=O)(=O)O)c(S(=O)(=O)O)c2)c2ccc(S(=O)(=O)O)cc12`, the EC50 was above 107 µM and the IC50 was 30.2 µM.
In the case of `CN(C)c1ccc(Cc2cc(C(C)(C)C)cc(C(C)(C)C)c2O)cc1`, the result was inactive.
For the molecule `S=c1[nH]c(=S)c2nnn(-c3ccccc3)c2[nH]1`, the EC50 is above 138 µM and the IC50 worked out at 126 µM.
With `O=C(NC(CO)C(=O)N[C@H]1c2ccsc2C(=O)[C@H]1O)OCc1ccccc1` (stereo partly drawn), the outcome was inactive.
With `Clc1ccc(OCc2nnc(CCCCCCCCc3nnc(COc4ccc(Cl)cc4Cl)n3Nc3ccccc3)n2Nc2ccccc2)c(Cl)c1`, the EC50 was above 0.501 µM and the IC50 was above 0.501 µM.
Regarding `CCN(CC)CCOC(=O)c1ccc(N=NC2Sc3nc4ccccc4n3C2=O)cc1` (stereo not drawn), the outcome was inactive.
As to `CCOC(=O)/C(=C\c1ccccc1OC)P(=O)(OCC)OCC`, the EC50 was above 724 µM and the IC50 came to 13.2 µM.
For `CC(=O)SCC1OC(n2cc(C)c(=O)[nH]c2=O)C/C1=N\O` (stereo not drawn) the same measures were above 200 µM and above 200 µM.
For `CC(=O)n1nnc2ccc([N+](=O)[O-])cc21` the same measures were above 34.7 µM and above 34.7 µM.
On to `N=c1n(CC(=O)NC23CC4CC(CC(C4)C2)C3)c2ccccc2n1CC(=O)NC12CC3CC(CC(C3)C1)C2`, for which the EC50 was above 200 µM and the IC50 came to 3.72 µM.
`O=C1NC(=S)S/C1=C\c1cccs1`: the EC50 is above 60.3 µM and the IC50 was above 60.3 µM.
For `CCCC/C(CC)=N/NS(=O)(=O)c1ccc(NC(C)=O)cc1`, the EC50 is above 398 µM and the IC50 came out at 288 µM.
`CC[C@@]1(O)C(=O)OCc2c1cc1n(c2=O)Cc2cc3ccccc3nc2-1`: the EC50 is above 0.1 µM and the IC50 was determined as 0.0162 µM.
Regarding `Cc1ccc(C(=O)Nc2ccc(S(=O)(=O)O)c3cc(S(=O)(=O)O)cc(S(=O)(=O)O)c23)cc1NC(=O)c1cccc(NC(=O)Nc2cccc(C(=O)Nc3cc(C(=O)Nc4ccc(S(=O)(=O)O)c5cc(S(=O)(=O)O)cc(S(=O)(=O)O)c45)ccc3C)c2)c1`, the concentration giving a half-maximal response (EC50) is 34.7 µM and the IC50 came out at 174 µM.
On to `O=c1cn[nH]c2c(Cl)cccc12`, for which the EC50 is above 589 µM and the IC50 turned out to be 355 µM.
Take `Cc1ccc(C(=O)/C=C2/SS/C(=C/C(=O)c3ccc(C)cc3)S2)cc1`: the EC50 is above 200 µM and the IC50 is above 200 µM.
Take `CC(=O)OC1C=CN(C(C)=O)C(SC(C)(C)C)C1(C)O` (stereo not drawn): the EC50 was above 200 µM and the IC50 is above 200 µM.
On to `O=C1c2ccccc2N(O)C1(c1ccccc1)C1CCCC=C1N1CCOCC1` (stereo not drawn), for which the outcome was inactive.
With `COc1ccc(-n2cnc3c(NC(C)(C)C(=O)O)ncnc32)cc1`, the EC50 is above 200 µM and the IC50 came out at 126 µM.
In the same order, the values of `O=C(Nc1ccc2cc(S(=O)(=O)O)ccc2c1)c1ccc(N=Nc2cc(S(=O)(=O)O)c3ccccc3c2O)cc1` are above 50.1 µM and above 50.1 µM.
On to `N#Cc1c(C#N)c(-c2cccc([N+](=O)[O-])c2)n(-c2ccccc2)c1N`, for which the EC50 is above 200 µM and the IC50 was found to be 141 µM.

What is called EC50 is the concentration at which the effect is half-maximal. Usually IC50 stands for the concentration needed to halve the response being measured. Lower therefore signals greater potency in that assay.
